Measured values taken from DBAASP.
Values after ≈ are worked out from the molar mass of the structure shown.

What was measured:
Assay in all cases: ≥ marks a high value that may be exact or a test limit, other limits are often not marked, values filed in µg/mL are converted to µM
[1] = tested on: Bacillus subtilis ATCC 6633
Bacillus cereus = tested on: Bacillus cereus
Shigella dysenteriae = tested on: Shigella dysenteriae
Pseudomonas aeruginosa = tested on: Pseudomonas aeruginosa
[2] = tested on: Candida albicans ATCC 2002
[3] = tested on: Escherichia coli ATCC 25922
[4] = tested on: Staphylococcus aureus ATCC 2592
[5] = tested on: Staphylococcus epidermidis ATCC 12228
[6] = tested on: Salmonella enterica subsp. enterica serovar Typhimurium ATCC 14028
[7] = tested on: Staphylococcus aureus ATCC 6538P
[8] = tested on: Klebsiella pneumoniae ATCC 10031
[9] = tested on: Pseudomonas aeruginosa ATCC 27853
[10] = tested on: Micrococcus luteus ATCC 10240
[11] = tested on: Shigella dysenteriae ATCC 9752
Escherichia coli K-12 = tested on: Escherichia coli K-12
[12] = tested on: Staphylococcus aureus USA 300
Bacillus subtilis 168 = tested on: Bacillus subtilis 168
[13] = tested on: Pseudomonas aeruginosa PAO1
[14] = tested on: Pseudomonas aeruginosa CMCCB 10104
[15] = tested on: Staphylococcus aureus ATCC 25923
[16] = tested on: Staphylococcus aureus ATCC 6538

With `CC[C@H](C)[C@H](NC(=O)CN)C(=O)N[C@@H](CC(C)C)C(=O)N[C@@H](CC(=O)O)C(=O)N[C@@H](C)C(=O)N[C@H](C(=O)N[C@@H](CCCCN)C(=O)N[C@@H](C)C(=O)N[C@@H](Cc1ccccc1)C(=O)N[C@@H](C)C(=O)N[C@@H](CC(N)=O)C(=O)N[C@@H](C)C(=O)N[C@@H](CC(C)C)C(=O)NCC(N)=O)[C@@H](C)CC` [GILDAIKAFANALG] the MIC [1] was 4 µM (≈ 5.5 µg/mL), the MIC (Bacillus cereus) was 8.01 µM (≈ 11 µg/mL) and the MIC (Shigella dysenteriae) was 2 µM (≈ 2.75 µg/mL). The MIC (Pseudomonas aeruginosa) was 4 µM (≈ 5.5 µg/mL), the MIC [2] was ≥ 48 µM and the MIC [3] was 32 µM (≈ 44 µg/mL). For the same compound, the MIC [4] was 4 µM (≈ 5.5 µg/mL).

In the case of `CC(C)C[C@H](NC(=O)[C@H](CCCCN)NC(=O)[C@H](CCCCN)NC(=O)[C@H](CC(C)C)NC(=O)[C@H](Cc1c[nH]c2ccccc12)NC(=O)[C@H](CCCCN)NC(=O)[C@H](CC(C)C)NC(=O)[C@@H](N)CC(C)C)C(N)=O` [LLKWLKKL], the MIC [1] is reported as ≥ 48 µM, the MIC [5] is reported as 96 µM (≈ 99.9 µg/mL) and the MIC [6] is reported as > 192 µM. The MIC [7] was 24 µM (≈ 25 µg/mL), the MIC [8] was ≥ 192 µM and the MIC [9] was 48 µM (≈ 50 µg/mL). The MIC [10] was ≥ 96 µM, the MIC [11] was ≥ 192 µM and the MIC [3] was 96 µM (≈ 99.9 µg/mL).

In the case of `CC[C@H](C)[C@H](NC(=O)[C@H](CCCN=C(N)N)NC(=O)[C@H](CCC(N)=O)NC(=O)[C@@H](NC(=O)[C@@H](NC(=O)[C@H](CCCN=C(N)N)NC(=O)[C@@H](N)CCCN=C(N)N)[C@@H](C)CC)C(C)C)C(=O)N[C@@H](CCCN=C(N)N)C(=O)N[C@@H](CC(=O)O)C(=O)N[C@@H](Cc1ccccc1)C(=O)N[C@@H](CC(C)C)C(=O)N[C@@H](CCCN=C(N)N)C(N)=O` [RRIVQRIRDFLR], the MIC (Escherichia coli K-12) is reported as 30 µM (≈ 48.8 µg/mL).

`CC[C@H](C)[C@H](N)C(=O)N[C@@H](CCCCN)C(=O)N[C@@H](Cc1c[nH]c2ccccc12)C(=O)N[C@@H](CCCCN)C(=O)N[C@@H](CCCCN)C(=O)N[C@@H](CC(C)C)C(=O)N[C@@H](CC(C)C)C(=O)N[C@@H](CCCN=C(N)N)C(=O)N[C@@H](C)C(=O)N[C@@H](C)C(=O)N[C@@H](CCCCN)C(=O)N[C@@H](CCCN=C(N)N)C(=O)N[C@H](C(=O)N[C@@H](CC(C)C)C(N)=O)[C@@H](C)CC` [IKWKKLLRAAKRIL] gave an MIC [12] of 6.2 µM (≈ 10.8 µg/mL), an MIC (Bacillus subtilis 168) of 12.5 µM (≈ 21.7 µg/mL) and an MIC (Escherichia coli K-12) of 3.1 µM (≈ 5.38 µg/mL). For the same compound, the MIC [13] was 6.25 µM (≈ 10.9 µg/mL).

`CC[C@H](C)[C@H](NC(=O)[C@H](CC(C)C)NC(=O)[C@H](CCC(N)=O)NC(=O)[C@@H](NC(=O)[C@H](C)NC(=O)CNC(=O)[C@H](CCCCN)NC(=O)[C@@H](NC(=O)[C@H](CC(C)C)NC(=O)[C@@H](NC(=O)[C@H](Cc1ccccc1)NC(=O)[C@@H](NC(=O)CN)C(C)C)[C@@H](C)O)[C@@H](C)CC)[C@@H](C)O)C(=O)NCC(=O)N[C@@H](CCCCN)C(=O)N[C@H](C(=O)N[C@@H](CC(C)C)C(=O)NCC(=O)N[C@@H](CCCCN)C(=O)N[C@@H](CCC(=O)O)C(=O)N[C@@H](CC(C)C)C(=O)NCC(=O)N[C@@H](CCCCN)C(=O)N[C@H](C(=O)NCC(=O)N[C@@H](CC(C)C)C(=O)N[C@@H](CCC(=O)O)C(=O)N[C@@H](CC(C)C)C(=O)N[C@@H](CCSC)C(=O)N[C@@H](C)C(=O)N[C@H]1CSSC[C@@H](C(=O)O)NC(=O)[C@H](CCC(N)=O)NC(=O)[C@H](CCC(=O)O)NC(=O)[C@H]([C@@H](C)O)NC(=O)[C@H]([C@@H](C)CC)NC(=O)[C@H](CCCCN)NC1=O)[C@@H](C)O)[C@@H](C)O` [GVFTLIKGATQLIGKTLGKELGKTGLELMACKITEQC] showed an MIC [14] of 0.924 µM (≈ 3.6 µg/mL), an MIC [15] of 0.924 µM (≈ 3.6 µg/mL) and an MIC [2] of 0.924 µM (≈ 3.6 µg/mL). The MIC [3] was 0.924 µM (≈ 3.6 µg/mL).

For `CC(C)C[C@H](NC(=O)[C@H](CCC(N)=O)NC(=O)[C@H](CCCCN)NC(=O)[C@H](Cc1ccc(O)cc1)NC(=O)[C@@H]1CCCN1C(=O)[C@H](CCC(N)=O)NC(=O)[C@H](C)NC(=O)[C@H](CO)NC(=O)CN)C(=O)N[C@@H](Cc1cnc[nH]1)C(=O)N[C@@H](CCCCN)C(=O)N[C@H](C(=O)N[C@H](C(=O)N[C@@H](CC(N)=O)C(=O)N[C@@H](Cc1c[nH]c2ccccc12)C(=O)N[C@@H](CC(=O)O)C(=O)N1CCC[C@H]1C(=O)N[C@@H](Cc1ccc(O)cc1)C(=O)NCC(=O)O)C(C)C)C(C)C` [GSAQPYKQLHKVVNWDPYG], the MIC (Shigella dysenteriae) was 27.4 µM (≈ 60 µg/mL), the MIC [2] was 13.7 µM (≈ 30 µg/mL) and the MIC [3] was > 45.7 µM. For the same compound, the MIC [4] was 6.86 µM (≈ 15 µg/mL).

`CC[C@H](C)[C@H](NC(=O)[C@H](Cc1ccccc1)NC(=O)[C@H](CCCCN)NC(=O)[C@H](CC(=O)O)NC(=O)[C@@H](NC(=O)[C@H](CC(C)C)NC(=O)[C@H](CC(=O)O)NC(=O)[C@H](CCC(=O)O)NC(=O)[C@H](C)NC(=O)[C@H](CC(=O)O)NC(=O)[C@H](CCC(=O)O)NC(=O)CNC(=O)[C@H](CC(N)=O)NC(=O)[C@H](CCC(=O)O)NC(=O)[C@@H](NC(=O)[C@H](CC(N)=O)NC(=O)[C@H](C)NC(=O)[C@@H](N)CC(=O)O)C(C)C)[C@@H](C)O)C(=O)NCC(=O)N[C@@H](CC(C)C)C(=O)N[C@@H](CCSC)C(=O)NCC(=O)O` [DANVENGEDAEDLTDKFIGLMG] was tested, and the MIC [14] was ≥ 85 µM, the MIC [15] was > 85 µM and the MIC [2] was ≥ 85 µM. For the same compound, the MIC [3] was > 85 µM.

`CC[C@H](C)[C@H](NC(=O)[C@H](CC(C)C)NC(=O)[C@@H](NC(=O)[C@H](Cc1ccccc1)NC(=O)[C@H](CC(C)C)NC(=O)CN)[C@@H](C)O)C(=O)N[C@@H](CCCCN)C(=O)NCC(=O)N[C@@H](C)C(=O)N[C@@H](Cc1ccc(O)cc1)C(=O)N[C@@H](CCCCN)C(=O)N[C@@H](CC(N)=O)C(=O)N[C@@H](CC(=O)O)C(=O)N[C@@H](C)C(=O)N1CCC[C@H]1C(=O)N[C@H](C(=O)N[C@H](C(=O)N[C@@H](C)C(=O)N[C@@H](CS)C(=O)N[C@@H](CC(N)=O)C(=O)O)C(C)C)[C@@H](C)O` [GLFTLIKGAYKNDAPTVACN] was tested, and the MIC [14] was 23.2 µM (≈ 48.6 µg/mL), the MIC [15] was 5.82 µM (≈ 12.2 µg/mL) and the MIC [2] was 11.6 µM (≈ 24.3 µg/mL). For the same compound, the MIC [3] was 11.6 µM (≈ 24.3 µg/mL).

For `C[C@H](NC(=O)[C@H](Cc1c[nH]c2ccccc12)NC(=O)[C@H](CCCCN)NC(=O)[C@H](C)NC(=O)[C@@H](N)Cc1ccccc1)C(=O)N[C@@H](Cc1ccccc1)C(=O)N[C@@H](CCCCN)C(=O)N[C@@H](Cc1c[nH]c2ccccc12)C(=O)N[C@@H](C)C(=O)N[C@@H](CCCCN)C(=O)N[C@@H](CCCCN)C(N)=O` [FAKWAFKWAKK], the MIC [1] was 17.7 µM (≈ 25 µg/mL), the MIC [5] was 70.9 µM (≈ 99.9 µg/mL) and the MIC [6] was 142 µM (≈ 200 µg/mL). For the same compound, the MIC [7] was ≥ 70.9 µM, the MIC [8] was ≥ 142 µM and the MIC [9] was 142 µM (≈ 200 µg/mL). For the same compound, the MIC [10] was 17.7 µM (≈ 25 µg/mL), the MIC [11] was ≥ 35.4 µM and the MIC [3] was 70.9 µM (≈ 99.9 µg/mL).

With `CC[C@H](C)[C@H](NC(=O)[C@@H]1CCCN1C(=O)[C@H](Cc1cnc[nH]1)NC(=O)[C@H](CCCCN)NC(=O)[C@@H]1CCCN1C(=O)[C@@H](N)CCCNC(=N)N)C(=O)N[C@@H](CCCCN)C(=O)N[C@@H](Cc1cnc[nH]1)C(=O)N[C@@H](CCC(N)=O)C(=O)NCC(=O)N[C@@H](CC(C)C)C(=O)N1CCC[C@H]1C(=O)N[C@@H](CCC(N)=O)C(=O)N[C@@H](CCC(=O)O)C(=O)N[C@H](C(=O)N[C@@H](CC(C)C)C(=O)N[C@@H](CC(N)=O)C(=O)N[C@@H](CCC(=O)O)C(=O)N[C@@H](CC(N)=O)C(=O)N[C@@H](CC(C)C)C(=O)N[C@@H](CC(C)C)C(=O)N[C@@H](CCCNC(=N)N)C(=O)N[C@@H](Cc1ccccc1)C(=O)O)C(C)C` [RPKHPIKHQGLPQEVLNENLLRF] the MIC [12] was ≥ 100 µM and the MIC (Escherichia coli K-12) was ≥ 100 µM.

For `CC[C@H](C)[C@H](NC(=O)[C@H](CCSC)NC(=O)[C@H](CCCCN)NC(=O)[C@H](CCC(=O)O)NC(=O)[C@H](C)NC(=O)[C@H](CCCCN)NC(=O)[C@H](CCCCN)NC(=O)[C@H](Cc1ccccc1)NC(=O)[C@@H](NC(=O)[C@H](CCCCN)NC(=O)[C@H](Cc1c[nH]c2ccccc12)NC(=O)[C@@H](N)CCCCN)C(C)C)C(=O)N[C@@H](CCCN=C(N)N)C(=O)N[C@@H](CC(N)=O)C(=O)N[C@H](C(=O)N[C@@H](CCCN=C(N)N)C(=O)N[C@@H](CC(N)=O)C(=O)N[C@@H](CCCCN)C(=O)N[C@H](C(=O)N[C@H](C(=O)N[C@@H](CCCCN)C(N)=O)C(C)C)[C@@H](C)CC)[C@@H](C)CC` [KWKVFKKAEKMIRNIRNKIVK], the MIC [16] was > 25 µM, the MIC [9] was > 6 µM and the MIC (Escherichia coli K-12) was 3 µM (≈ 7.97 µg/mL).
